The source of these data is patent US9428508B2, “2,4-diamino-6,7-dihydro-5H-pyrrolo[2,3]pyrimidine derivatives as FAK/Pyk2 inhibitors” (Centaurus BioPharma Co., Ltd., priority 2011, dated 2016).

Assay [1] has as its target FAK (Homo sapiens (Human), UniProt Q05397). The assay is described as follows: Biochemical assay for FAK activity (LANCE TR-FRET, ULight-poly Glu,Ala,Tyr substrate). As to conditions: GST-tagged FAK, 120 min reaction. The protocol: (§1) Biochemical Assay for FAK/Pyk2 Activity
(§2) GST-tagged FAK was purchased from Invitrogen (PV3832). GST-tagged PYK2 was purchased from Invitrogen (PV4567). The activity of FAK/PYK2 was measured by monitoring the phosphorylation of a fluorophore labeled ULight-poly Glu, Ala, Tyr (1:1:1) peptide substrate from Perkin Elmer (TRF0101) in the presence of ATP. The phosphorylated tyrosine residue was recognized by a LANCE Europium chelate labeled anti-phosphotyrosine (PY20) antibody from Perkin Elmer (AD0066). This brought the fluorophore and europium chelate in close proximity ([…]) that upon excitation at 320 nm by an Envision (PerkinElmer), energy can be transferred from the donor Europium chelate to the acceptor fluorophore. […] The strength of the signal was, therefore, directly proportional to the FAK/PYK2 activity.
(§3) To measure inhibitory activity of FAK/PYK2 inhibitors, compounds were first prepare as a 1 mM stock in 100% DMSO and 3-fold serial dilution was performed in a 96-well plate (Corning, 3897) to generate 12 different concentration of 100× stock. A 5 μl of 100× stock of each concentration was added to wells containing 95 μl of 1× reaction buffer (40 mM Tris, pH7.5, […], 1 mM DTT and 1 mM CHAPS) to generate 5× stock. Then 2 μl of 5× stock of each concentration was added to a 384 wells-OptiPlate (PerkinElmer, 6007299).
For FAK, 4 μl of 2.5 nM FAK, 1 ul of 8 μg/μl BSA and 1.5 μl of 666 nM ULight-poly Glu, Ala, Tyr (1:1:1) peptide substrate, prepared in above reaction buffer, were added to each well. The reaction was initiated by adding 1.5 μl of 33.3 μM ATP. The reaction was allowed to proceed for 120 min before being quenched with 5 μl of 40 mM EDTA stop buffer prepared in 1×LANCE detection buffer (PerkinElmer, CR97-100).
(§4) Upon quenching of the reaction, 5 μl of 8 nM anti-phosphotyrosine antibody was added to each well and incubated for 60 minutes. The plate was measured using an Envision (PerkinElmer) based on the theory mentioned above.
(In general: In TR-FRET formats the signal depends on donor and acceptor labels being close together.)

Assay [2] concerns the target PYK2 (Homo sapiens (Human), UniProt Q14289). The assay is described as follows: Biochemical assay for PYK2 activity (LANCE TR-FRET, ULight-poly Glu,Ala,Tyr substrate). Conditions: GST-tagged PYK2, 40 min reaction. The method, then: as §1, §2, §3
For PYK2, 5 μl of 2 nM PYK2 and 1.5 μl of 666 nM ULight-poly Glu, Ala, Tyr (1:1:1) peptide substrate, prepared in above reaction buffer, were added to each well. The reaction was initiated by adding 1.5 μl of 46.6 μM ATP. The reaction was allowed to proceed for 40 min before being quenched with 5 μl of 40 mM EDTA stop buffer prepared in 1×LANCE detection buffer (PerkinElmer, CR97-100).
as §4

PYK2, sequence (Q14289 whole entry): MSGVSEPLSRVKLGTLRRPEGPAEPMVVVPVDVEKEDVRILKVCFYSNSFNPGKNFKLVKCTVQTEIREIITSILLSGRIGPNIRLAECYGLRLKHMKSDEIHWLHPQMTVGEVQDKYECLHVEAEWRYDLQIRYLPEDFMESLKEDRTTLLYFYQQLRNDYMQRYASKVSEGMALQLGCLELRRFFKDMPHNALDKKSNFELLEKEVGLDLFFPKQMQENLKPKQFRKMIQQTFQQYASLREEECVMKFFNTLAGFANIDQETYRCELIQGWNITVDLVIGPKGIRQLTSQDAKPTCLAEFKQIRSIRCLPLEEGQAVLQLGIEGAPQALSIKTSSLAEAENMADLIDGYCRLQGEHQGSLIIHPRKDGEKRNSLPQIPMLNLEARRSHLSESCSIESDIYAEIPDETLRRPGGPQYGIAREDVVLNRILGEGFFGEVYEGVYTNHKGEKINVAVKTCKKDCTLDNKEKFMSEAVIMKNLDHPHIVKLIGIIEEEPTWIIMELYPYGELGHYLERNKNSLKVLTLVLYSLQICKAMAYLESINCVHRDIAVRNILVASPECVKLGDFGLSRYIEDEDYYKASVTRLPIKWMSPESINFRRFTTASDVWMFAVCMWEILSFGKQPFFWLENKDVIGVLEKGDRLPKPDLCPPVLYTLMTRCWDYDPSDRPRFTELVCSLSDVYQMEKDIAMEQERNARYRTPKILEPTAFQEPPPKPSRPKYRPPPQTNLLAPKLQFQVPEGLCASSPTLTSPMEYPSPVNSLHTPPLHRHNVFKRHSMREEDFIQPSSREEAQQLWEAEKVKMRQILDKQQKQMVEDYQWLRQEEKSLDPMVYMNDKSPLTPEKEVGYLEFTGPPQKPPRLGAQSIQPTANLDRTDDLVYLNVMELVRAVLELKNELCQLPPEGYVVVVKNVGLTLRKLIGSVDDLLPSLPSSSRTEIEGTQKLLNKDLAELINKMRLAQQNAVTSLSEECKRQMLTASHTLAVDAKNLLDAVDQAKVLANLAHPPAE
FAK, sequence (Q05397 whole entry): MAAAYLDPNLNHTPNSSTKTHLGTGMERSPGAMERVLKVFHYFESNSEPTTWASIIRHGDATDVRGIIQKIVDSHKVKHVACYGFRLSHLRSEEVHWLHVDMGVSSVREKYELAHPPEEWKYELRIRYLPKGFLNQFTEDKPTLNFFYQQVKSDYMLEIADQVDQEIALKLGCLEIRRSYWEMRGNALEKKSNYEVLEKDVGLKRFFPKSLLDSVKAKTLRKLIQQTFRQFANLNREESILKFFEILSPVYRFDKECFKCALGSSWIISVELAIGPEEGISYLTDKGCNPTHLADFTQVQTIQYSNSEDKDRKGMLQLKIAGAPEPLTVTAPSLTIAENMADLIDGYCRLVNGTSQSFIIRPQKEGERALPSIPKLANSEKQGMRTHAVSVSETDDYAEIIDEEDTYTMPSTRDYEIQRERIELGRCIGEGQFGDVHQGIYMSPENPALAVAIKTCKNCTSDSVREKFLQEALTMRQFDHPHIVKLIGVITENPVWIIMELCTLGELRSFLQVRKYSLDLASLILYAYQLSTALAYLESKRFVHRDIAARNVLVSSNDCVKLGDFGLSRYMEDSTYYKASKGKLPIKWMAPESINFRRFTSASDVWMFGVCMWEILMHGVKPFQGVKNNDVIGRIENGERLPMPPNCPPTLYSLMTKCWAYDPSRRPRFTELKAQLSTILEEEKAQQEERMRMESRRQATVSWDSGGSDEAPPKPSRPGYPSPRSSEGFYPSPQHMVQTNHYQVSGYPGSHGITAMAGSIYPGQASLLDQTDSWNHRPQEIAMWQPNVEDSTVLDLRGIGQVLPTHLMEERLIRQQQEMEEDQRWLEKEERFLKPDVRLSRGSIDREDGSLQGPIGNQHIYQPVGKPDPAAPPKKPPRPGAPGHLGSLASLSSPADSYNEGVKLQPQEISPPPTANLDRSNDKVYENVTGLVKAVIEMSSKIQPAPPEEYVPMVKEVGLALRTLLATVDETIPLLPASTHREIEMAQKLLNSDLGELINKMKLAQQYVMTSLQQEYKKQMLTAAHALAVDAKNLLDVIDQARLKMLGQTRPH

By IC50 is commonly meant the concentration that inhibits the measured activity by half. In the case of `COc1cc(N2CCOCC2)ccc1Nc1nc2c(c(Nc3ccccc3N(C)S(C)(=O)=O)n1)CCN2` [Example 10, N-(2-(2-(2-methoxy-4-morpholinophenylamino)-6,7-dihydro-5H-pyrrolo[2,3-d]pyrimidin-4-ylamino)phenyl)-N-methylmethanesulfonamide], the IC50 in assay [1] is below 100 nM; in assay [2] it was below 50 nM.

For `COc1cc(N2CCOCC2)ccc1Nc1nc2c(c(NCc3ccccc3N(C)S(C)(=O)=O)n1)CCN2` [Example 11, N-(2-((2-(2-methoxy-4-morpholinophenylamino)-6,7-dihydro-5H-pyrrolo[2,3-d]pyrimidin-4-ylamino)methyl)phenyl)-N-methylmethanesulfonamide], the IC50 in assay [1] was below 100 nM; in assay [2], above 2000 nM.

For `COc1cc(N2CCOCC2)ccc1Nc1nc2c(c(Nc3cccc(C)n3)n1)CCN2` [Example 12, N^2-(2-methoxy-4-morpholinophenyl)-N^4-(6-methylpyridin-2-yl)-6,7-dihydro-5H-pyrrolo[2,3-d]pyrimidine-2,4-diamine], the half-maximal inhibitory concentration (IC50) in assay [1] and in assay [2] was below 100 nM in each case.

Regarding `CNC(=O)c1ccccc1Nc1nc(Nc2ccc(N3CCOCC3)cc2CO)nc2c1CCN2` [Example 14, 2-(2-(2-(hydroxymethyl)-4-morpholinophenylamino)-6,7-dihydro-5H-pyrrolo[2,3-d]pyrimidin-4-ylamino)-N-methylbenzamide], the IC50 in assay [1] and in assay [2] was above 1000 nM throughout.

For `CNC(=O)c1ccccc1Nc1nc(Nc2cccc3c2OCCO3)nc2c1CCN2` [Example 15, 2-(2-(2,3-dihydrobenzo[b][1,4]dioxin-5-ylamino)-6,7-dihydro-5H-pyrrolo[2,3-d]pyrimidin-4-ylamino)-N-methylbenzamide], the IC50 in assay [1] and in assay [2] was below 500 nM each time.

Turning to `CNC(=O)c1ccccc1Nc1nc(Nc2ccc(N3CCOCC3)c3c2OCCO3)nc2c1CCN2` [Example 16, N-methyl-2-(2-(8-morpholino-2,3-dihydrobenzo[b][1,4]dioxin-5-ylamino)-6,7-dihydro-5H-pyrrolo[2,3-d]pyrimidin-4-ylamino)benzamide], the IC50 in assay [1] is below 500 nM; in assay [2], below 200 nM.

Consider `CCN1C(=O)CCCc2c1ccc(Nc1nc3c(c(Nc4ccccc4C(=O)NC)n1)CCN3)c2OC` [Example 17, 2-(2-(1-ethyl-6-methoxy-2-oxo-2,3,4,5-tetrahydro-1H-benzo[b]azepin-7-ylamino)-6,7-dihydro-5H-pyrrolo[2,3-d]pyrimidin-4-ylamino)-N-methylbenzamide], for which the half-inhibitory concentration (IC50) in assay [1] was below 1000 nM; in assay [2] it was below 200 nM.

Consider `CNC(=O)c1ccccc1Nc1nc(Nc2cccc3ccoc23)nc2c1CCN2` [Example 19, 2-(2-(benzofuran-7-ylamino)-6,7-dihydro-5H-pyrrolo[2,3-d]pyrimidin-4-ylamino)-N-methylbenzamide], for which the figures for the 50% inhibitory concentration (IC50) in assay [1] and in assay [2] were below 200 nM and below 100 nM, respectively.

As for `CNC(=O)c1ccccc1Nc1nc(Nc2cc(C)nn2C)nc2c1CCN2` [Example 20, 2-(2-(1,3-dimethyl-1H-pyrazol-5-ylamino)-6,7-dihydro-5H-pyrrolo[2,3-d]pyrimidin-4-ylamino)-N-methylbenzamide], the concentration for half-maximal inhibition (IC50) was below 1000 nM in assay [1] and below 500 nM in assay [2].

With `CNC(=O)c1ccccc1Nc1nc(Nc2cc(OC)c(OC)c(OC)c2)nc2c1CCN2` [Example 21, N-methyl-2-(2-(3,4,5-trimethoxyphenylamino)-6,7-dihydro-5H-pyrrolo[2,3-d]pyrimidin-4-ylamino)benzamide], the IC50 in assay [1] is below 1000 nM; in assay [2], below 300 nM.

`CNC(=O)c1ccccc1Nc1nc(Nc2cccc3c2ccn3CCCN2CCOCC2)nc2c1CCN2` [Example 22, N-methyl-2-(2-(1-(3-morpholinopropyl)-1H-indol-4-ylamino)-6,7-dihydro-5H-pyrrolo[2,3-d]pyrimidin-4-ylamino)benzamide]: the IC50 is below 100 nM in assay [1] and below 200 nM in assay [2].

On to `CNC(=O)c1ccccc1Nc1nc(Nc2ccc(N3CCOCC3)cc2OC)nc2c1[C@H](C)CN2` [Example 35, (S)-2-(2-(2-methoxy-4-morpholinophenylamino)-5-methyl-6,7-dihydro-5H-pyrrolo[2,3-d]pyrimidin-4-ylamino)-N-methylbenzamide], for which the IC50 in assay [1] and in assay [2] was below 20 nM throughout.

As for `COc1cc(N2CCOCC2)ccc1Nc1nc2c(c(Nc3ccccc3S(=O)(=O)NC3CCC3)n1)[C@H](C)CN2` [Example 36, (S)—N-cyclobutyl-2-(2-(2-methoxy-4-morpholinophenylamino)-5-methyl-6,7-dihydro-5H-pyrrolo[2,3-d]pyrimidin-4-ylamino)benzenesulfonamide], the IC50 in assay [1] and in assay [2] was below 20 nM throughout.

For the molecule `CNC(=O)c1ccccc1Nc1nc(Nc2ccc(N3CCOCC3)cc2OC)nc2c1C(C)(C)CN2` [Example 37, 2-(2-(2-methoxy-4-morpholinophenylamino)-5,5-dimethyl-6,7-dihydro-5H-pyrrolo[2,3-d]pyrimidin-4-ylamino)-N-methylbenzamide], the IC50 in assay [1] and in assay [2] was below 20 nM in each case.

With `COc1cc(N2CCOCC2)ccc1Nc1nc2c(c(Nc3ccccc3S(=O)(=O)N(C)C)n1)CCN2` [Example 38, 2-(2-(2-methoxy-4-morpholinophenylamino)-6,7-dihydro-5H-pyrrolo[2,3-d]pyrimidin-4-ylamino)-N,N-dimethylbenzenesulfonamide], the IC50 in assay [1] was below 50 nM; in assay [2], below 200 nM.

Turning to `CCCCNS(=O)(=O)c1ccccc1Nc1nc(Nc2ccc(N3CCOCC3)cc2OC)nc2c1CCN2` [Example 39, N-butyl-2-(2-(2-methoxy-4-morpholinophenylamino)-6,7-dihydro-5H-pyrrolo[2,3-d]pyrimidin-4-ylamino)benzenesulfonamide], the IC50 was below 50 nM in assay [1] and below 100 nM in assay [2].

Turning to `COc1cc(N2CCOCC2)ccc1Nc1nc2c(c(Nc3ccccc3S(=O)(=O)NC(C)C)n1)CCN2` [Example 40, N-isopropyl-2-(2-(2-methoxy-4-morpholinophenylamino)-6,7-dihydro-5H-pyrrolo[2,3-d]pyrimidin-4-ylamino)benzenesulfonamide], the IC50 in assay [1] and in assay [2] was below 20 nM each time.

In the case of `COc1cc(N2CCOCC2)ccc1Nc1nc2c(c(Nc3ccccc3S(N)(=O)=O)n1)CCN2` [Example 41, 2-(2-(2-methoxy-4-morpholinophenylamino)-6,7-dihydro-5H-pyrrolo[2,3-d]pyrimidin-4-ylamino)benzenesulfonamide], the IC50 was below 50 nM in assay [1] and below 200 nM in assay [2].

For the molecule `COc1cc(N2CCOCC2)ccc1Nc1nc2c(c(Nc3ccccc3S(=O)(=O)NC3CC3)n1)CCN2` [Example 42, N-cyclopropyl-2-(2-(2-methoxy-4-morpholinophenylamino)-6,7-dihydro-5H-pyrrolo[2,3-d]pyrimidin-4-ylamino)benzenesulfonamide], the IC50 was below 20 nM in assay [1] and below 50 nM in assay [2].

Consider `CCNS(=O)(=O)c1ccccc1Nc1nc(Nc2ccc(N3CCOCC3)cc2OC)nc2c1CCN2` [Example 43, N-ethyl-2-(2-(2-methoxy-4-morpholinophenylamino)-6,7-dihydro-5H-pyrrolo[2,3-d]pyrimidin-4-ylamino)benzenesulfonamide], for which the figures for the IC50 in assay [1] and in assay [2] were below 100 nM and below 20 nM, respectively.

Consider `CCC(C)NS(=O)(=O)c1ccccc1Nc1nc(Nc2ccc(N3CCOCC3)cc2OC)nc2c1CCN2` (stereo not shown) [Example 44, N-sec-butyl-2-(2-(2-methoxy-4-morpholinophenylamino)-6,7-dihydro-5H-pyrrolo[2,3-d]pyrimidin-4-ylamino)benzenesulfonamide], for which the IC50 in assay [1] and in assay [2] was below 20 nM in each case.

Turning to `COc1cc(N2CCOCC2)ccc1Nc1nc2c(c(Nc3ccccc3S(=O)(=O)NCC(C)C)n1)CCN2` [Example 45, N-isobutyl-2-(2-(2-methoxy-4-morpholinophenylamino)-6,7-dihydro-5H-pyrrolo[2,3-d]pyrimidin-4-ylamino)benzenesulfonamide], the IC50 in assay [1] and in assay [2] was below 100 nM each time.

With `COc1cc(N2CCOCC2)ccc1Nc1nc2c(c(Nc3ccccc3S(=O)(=O)NC(C)(C)C)n1)CCN2` [Example 47, N-tert-butyl-2-(2-(2-methoxy-4-morpholinophenylamino)-6,7-dihydro-5H-pyrrolo[2,3-d]pyrimidin-4-ylamino)benzenesulfonamide], the IC50 in assay [1] is below 200 nM; in assay [2], below 100 nM.
